Where two headings read alike, the source gives them in different places.
Test: Iontophoretic administration of salmon calcitonin to beagles, blood level by RIA
Assay type: in vivo, beagle (dog)
Settings: for level at 0.5 h: beagle, dog, blood, pulse depolarization iontophoresis 0.2 mA for 30 min, measured 30 minutes later, beagles under pentobarbital anesthesia, read-out: blood concentration of salmon calcitonin
Experimental: Beagles were put under pentobarbital anesthesia. A positive electrode pad containing salmon calcitonin 1000 unit (an extraction pad of an electrode structure applied to the mucous membrane of the mouth) was applied to the mucous membrane of the mouth of each beagle. A negative electrode (a counter pad of an electrode structure applied to the skin) was applied to the ear of the beagle. A pulse depolarization type iontophoresis system was used to apply a 0.2-mA current for 30 minutes. Then, 30 minutes later, the level of salmon calcitonin in the blood was measured. An RIA kit (ROIK6003, Peninsula) was used for quantification.
As in the case with Example 3, salmon calcitonin was administered to beagles under pentobarbital anesthesia. However, the positive electrode pad was not applied to the mucous membrane of the mouth but to the skin (belly). The negative electrode was applied to the ear. The other conditions are similar to those for Example 3.
FIG. 4 is a graph showing the blood concentration observed 30 minutes after the application of the present system to the mucous membrane of the mouth (Example 3) and to the skin (Comparative Example 1). The blood concentration was about 530 pg/ml 30 minutes after salmon calcitonin was administered to the dog via the mucous membrane of the mouth (Example 3). The blood concentration was about 90 pg/ml 30 minutes after salmon calcitonin was administered to the dog via the skin (Comparative Example 1). Calcitonin is ionized, but owing to its […], calcitonin permeates through the living body as a result of the flow of water caused by iontophoresis instead of its direct electric driving force.

CC(C)C[C@H](NC(=O)[C@H](CCCCN)NC(=O)CNC(=O)[C@H](CC(C)C)NC(=O)[C@@H](NC(=O)[C@@H]1CSSC[C@H](N)C(=O)N[C@@H](CO)C(=O)N[C@@H](CC(N)=O)C(=O)N[C@@H](CC(C)C)C(=O)N[C@@H](CO)C(=O)N[C@@H]([C@@H](C)O)C(=O)N1)C(C)C)C(=O)N[C@@H](CO)C(=O)N[C@@H](CCC(N)=O)C(=O)N[C@@H](CCC(=O)O)C(=O)N[C@@H](CC(C)C)C(=O)N[C@@H](Cc1c[nH]cn1)C(=O)N[C@@H](CCCCN)C(=O)N[C@@H](CC(C)C)C(=O)N[C@@H](CCC(N)=O)C(=O)N[C@H](C(=O)N[C@@H](Cc1ccc(O)cc1)C(=O)N1CCC[C@H]1C(=O)N[C@@H](CCCNC(=N)N)C(=O)N[C@H](C(=O)N[C@@H](CC(N)=O)C(=O)N[C@H](C(=O)NCC(=O)N[C@@H](CO)C(=O)NCC(=O)N[C@H](C(=O)N1CCC[C@H]1C(N)=O)[C@@H](C)O)[C@@H](C)O)[C@@H](C)O)[C@@H](C)O [salmon calcitonin]
level at 0.5 h (topical or ocular, Comparative Example 1: positive electrode pad (1000 unit) on skin (belly)): ~0.09 ng/mL
level at 0.5 h (Example 3: positive electrode pad (1000 unit) on mucous membrane of the mouth): ~0.53 ng/mL
absorptivity of mucous membrane relative to skin (iontophoresis, mucous membrane vs skin): six
